{"source": "paper PMC7503713", "about": "“GANT61 Reduces Hedgehog Molecule (GLI1) Expression and Promotes Apoptosis in Metastatic Oral Squamous Cell Carcinoma Cells” (International Journal of Molecular Sciences, 2020)", "type_in_all_cases": "cell-based, human", "key": {"SCC4": {"tested_on": "SCC4", "test": "alamarBlue cytotoxicity assay, SCC4", "details": "72 h of incubation", "procedure": "(§1) To assess the cytotoxicity of the GLI inhibitor GANT61 (Sigma-Aldrich, St. Louis, MO, USA) in tumor and non-tumor cell lines, an alamarBlue assay (Sigma-Aldrich Chemical Co, St. Louis, MO, USA) was performed after 72 h of exposure to the inhibitor, as described by Ahmed et al., 1994 [46]. Cells were distributed on 96-well plates at a density of 7 × 10^4 cells/mL for adhered cells, and 3 × 10^5 cells/mL for cells in suspension. All tested compounds were dissolved in DMSO, added to wells containing 100 µL of cells in complete medium, and then incubated for 72 h. Eight concentrations of GANT61 (0.19 to 50 µg/mL), Doxorubicin (Laboratory IMA S.A.I.C., Buenos Aires, Argentina), and 5-Fluorouracil (5-FU, Sigma-Aldrich, St. Louis, MO, USA), both used as positive controls at concentrations ranging from 0.03 to 5 µg/mL, were added to respective wells. […] Absorbance was measured at 570 nm (reduced) and 595 nm (oxidized) wavelengths, using a Spectramax 190 plate reader (Molecular Devices; Sunnyvale, CA, USA).\n(§2) Statistical analyses were performed, using GraphPad Prism v. […] Data were analyzed according to distribution along the normal Gaussian curve. […] Differences between groups resulting from in vitro assays were evaluated by ANOVA (analysis of variance) testing, followed by the Student–Newman–Keuls test. […]"}, "HaCat": {"tested_on": "HaCat", "test": "alamarBlue cytotoxicity assay, HaCat", "details": "72 h of incubation", "procedure": "as §1, §2"}, "SCC25": {"tested_on": "SCC25", "test": "alamarBlue cytotoxicity assay, SCC25", "details": "72 h of incubation", "procedure": "as §1, §2"}, "GLI1 mRNA": {"tested_on": "GLI1 mRNA", "test": "qPCR of HH pathway gene expression in HSC3 cells, GLI1", "details": "12 h", "procedure": "(§3) For total RNA isolation, HSC3 cells were plated on 6-well plates, at a density of 0.7 × 10^5 cells/mL (5 mL/well volume), and incubated overnight, followed by treatment with the GLI inhibitor for 12 h at both concentrations (18 and 36 µM).\n(§4) All experiments were carried out under DNAse/RNAse-free conditions. Silica microcolumns were used for RNA extraction, using an RNeasy Plus Mini Kit (QIAGEN, Hilden, Germany). Extracted RNA was analyzed for quantity and purity, using a NanoDrop®® 1000 spectrophotometer (Thermo Fisher Scientific, Waltham, MA, USA).\n(§5) Reverse transcription was performed by using Superscript VILO™ transcriptase enzyme (Invitrogen, Carlsbad, CA, USA). The cDNA samples were stored at −20 °C, until the time of use.\n(§6) HH pathway component expression was evaluated in cells treated or not with GANT61 by qPCR, using TaqMan Gene Expression Assays^TM inventoried for the PTCH1 (Hs00181117_m1), GLI1 (Hs01110766_m1), GLI2 (Hs01119974_m1), and GLI3 (Hs00609233_m1) genes, as well as for B2 M (Hs99999907_m1). […]\n(§7) Following amplification and dissociation runs, quantification cycle (Cq) values were obtained by using the ViiA7^TM System Operational Program (AppliedByosistems, Foster City, CA, USA). For relative quantification, the comparative method (2−∆∆Cq) described by Livak and Schmittgen, 2001 was used. […]"}, "PTCH1 protein": {"tested_on": "PTCH1 protein", "test": "Western blot of HH pathway proteins in HSC3 cells, PTCH1", "details": "HSC3, 18 and 36 µM, 24 h", "procedure": "After culturing, HSC3 cells were washed with PBS and denatured by using cell lysis buffer containing 50 mM Tris-HCl (pH 7.4), 1% Triton X-100, 150 mM NaCl, 0.5 mM EGTA, 0.5 EDTA mM, and an anti-protease cocktail (Complete Pro-inhibitor Cocktail Tablets, Roche, Basel, Switzerland). Protein extracts (50 μg) were separated by SDS-PAGE and transferred to Hybond-C Extra (GE Healthcare, Chicago, IL, USA) nitrocellulose membranes. The following antibodies were used in the Western blot assay: mouse […] against Sonic Hedgehog (1:500, Clone 5 H4, Cat. number NBP2-22126, Novus Biologicals, Centennial, CO, USA), rabbit polyclonal against Gli1 (1:500, Novus Biologicals, Cat. number NB600-600), rabbit polyclonal against Patched 1 (1:500, Novus Biologicals, Cat.number NB200-118), and rabbit polyclonal against Smoothened (1:1000, Cat. number AB72130, Abcam, Cambridge, MA, USA). The secondary antibodies were anti-mouse IgG (1:10,000, Santa Cruz Biotechnology, Santa Cruz, CA, USA) and anti-rabbit IgG (1:10,000, GE Healthcare, Chicago, IL, USA). Signal detection was performed by using an ECL + Chemiluminescence Detection System (PerkinElmer, Villebon sur-Yvette, France). The antibody actin (1:10000, Cat. Number15 G5 A11/E2, Invitrogen, Carlsbad, CA, USA) was selected as an endogenous control for analysis of HH pathway component expression in HSC3 cells. […]"}, "GLI2 mRNA": {"tested_on": "GLI2 mRNA", "test": "qPCR of HH pathway gene expression in HSC3 cells, GLI2", "details": "HSC3, 18 and 36 µM, 12 h, not significant", "procedure": "as §3, §4, §5, §6, §7"}, "HT-29": {"tested_on": "HT-29", "test": "alamarBlue cytotoxicity assay, HT-29", "details": "HT-29, alamarBlue, 72 h of incubation", "procedure": "as §1, §2"}, "APC03": {"tested_on": "APC03", "test": "alamarBlue cytotoxicity assay, APC03", "details": "72 h of incubation", "procedure": "as §1, §2"}}, "data": [{"smiles": "CN(C)c1ccccc1CN1CCCN(Cc2ccccc2N(C)C)C1c1ccncc1", "note": "[GANT61]", "values": [{"measurement": "IC50", "setting": "SCC4", "result": 111, "unit": "µM"}, {"measurement": "IC50", "setting": "HaCat", "result": 35.1, "unit": "µM"}, {"measurement": "IC50", "setting": "SCC25", "result": 53.3, "unit": "µM"}, {"measurement": "mRNA expression of GLI1", "setting": "GLI1 mRNA; HSC3, 18 µM, not significant", "result": "Reductions in mRNA expression"}, {"measurement": "mRNA levels of GLI1", "setting": "GLI1 mRNA; HSC3, 36 µM, vs negative (DMSO 0.2%) and positive (5-FU) controls", "result": "statistically significant reduction"}, {"measurement": "PTCH1 protein expression", "setting": "PTCH1 protein", "result": "reduced levels"}, {"measurement": "mRNA expression of GLI2", "setting": "GLI2 mRNA", "result": "Reductions in mRNA expression"}, {"measurement": "IC50", "setting": "HT-29", "result": "> 116", "unit": "µM"}, {"measurement": "IC50", "setting": "APC03", "result": "> 116", "unit": "µM"}]}]}
